Data as given in article PMC7838189, “Natural podophyllotoxin analog 4DPG attenuates EMT and colorectal cancer progression via activation of checkpoint kinase 2” (Cell Death Discovery, 2021).

Tests used:
HCT-116/5-FU-R cells [1] = test: Matrigel invasion assay; type: cell-based; conditions: PV1019-treated, 48 h
Text: (§1) To examine whether 4DPG-mediated repression of Vimentin and invasiveness is a Chk2-dependent process, we performed genetic silencing of endogenous Chk2 in the 5-FU-R cells using target-specific SiRNAs.
Fig. 3 Chk2-dependent role of 4DPG in modulating p53 and repressing Vimentin expression in 5-FU-R cells. A Immunocytochemistry results showing the Vimentin expression level in SW-620/5-FU-R cells treated/transfected with scramble, SiChk2, scramble plus 4DPG, SiChk2 plus 4DPG, vehicle, PV1019, 4DPG, and PV1019 plus 4DPG for 48 h. Scale bars: 50 µm. […] C Matrigel invasion assay results showing invaded HCT-116/5-FU-R and SW-620/5-FU-R cells following 48 h of transient transfection with GFP and GFP-Chk2 plasmid construct. Scale bars: 50 µm. D Quantification of the number of invaded cells per field from the above experimental conditions. n = 3, error bars, mean ± SD; *P < 0.05, ***P < 0.001. E Immunocytochemistry results displaying Vimentin expression levels in HCT-116/5-FU-R and SW-620/5-FU-R cells after 48 h of transient transfection with pCDNA3 and/or HA-Chk2 plasmid construct. Scale bars: 50 µm. F Immunoprecipitation with Vimentin or p53 followed by western blotting analysis of p53 in SW-620/5-FU-R cells treated with vehicle and/or 4DPG (300 nM) for 48 h. […]

SW-620/5-FU-R cells [2] = test: Immunocytochemistry of Vimentin; type: cell-based; conditions: PV1019 alone, 48 h
Text: 4DPG, a podophyllotoxin class of natural product anticancer compound (Supplementary Fig. S2A) has been recently described by our research group for its potent antitumor and anti-metastatic properties against aggressive cancers[31],[32]. Further, 4DPG augments phosphorylation and activation of Chk2 (Thr68) leading to suppression of EMT and invasiveness of p53-defective cancer cells. To investigate the effect of 4DPG on phosphorylation and expression levels of Chk2 in HCT-116/5-FU-R, SW-620/5-FU-R, and HT-29/5-FU-R cells, we treated these cells for 48 h with increasing concentrations of the compound, and whole-cell lysates were subjected to western blotting analysis. […] To determine the effect of 4DPG on the invasion abilities of these 5-FU-R cells, we performed in situ fluorescent gelatin degradation assay following our pre-standardized protocol[31],[37]. In physiological conditions, this assay mimics the extracellular matrix degradation by aggressive tumor cells undergoing invasion–metastasis process.
as §1
Fig. 3 Chk2-dependent role of 4DPG in modulating p53 and repressing Vimentin expression in 5-FU-R cells. A Immunocytochemistry results showing the Vimentin expression level in SW-620/5-FU-R cells treated/transfected with scramble, SiChk2, scramble plus 4DPG, SiChk2 plus 4DPG, vehicle, PV1019, 4DPG, and PV1019 plus 4DPG for 48 h. Scale bars: 50 µm. […] C Matrigel invasion assay results showing invaded HCT-116/5-FU-R and SW-620/5-FU-R cells following 48 h of transient transfection with GFP and GFP-Chk2 plasmid construct. Scale bars: 50 µm. D Quantification of the number of invaded cells per field from the above experimental conditions. n = 3, error bars, mean ± SD; *P < 0.05, ***P < 0.001. E Immunocytochemistry results displaying Vimentin expression levels in HCT-116/5-FU-R and SW-620/5-FU-R cells after 48 h of transient transfection with pCDNA3 and/or HA-Chk2 plasmid construct. Scale bars: 50 µm. F Immunoprecipitation with Vimentin or p53 followed by western blotting analysis of p53 in SW-620/5-FU-R cells treated with vehicle and/or 4DPG (300 nM) for 48 h. G Cytosolic (left panel) and nuclear (right panel) extracts of SW-620/5-FU-R cells treated with vehicle and/or 4DPG (300 nM) for 48 h showing protein expression of Vimentin and p53. Tubulin and lamin expression was considered as endogenous loading controls for cytosolic and nuclear fractions, respectively.
We followed the standard protocol with some modifications for immunocytochemistry[56],[58]. In brief, cells, at a density of 4 × 10^5 cells/well, were seeded over the sterile coverslips placed in six-well plates. Following the respective treatment, cells were washed thrice with PBS. Next, the cells were fixed with 4% paraformaldehyde (pH = 7.4) for 15 min, permeabilized with 0.3% Triton X-100 for 10 min, and then blocked with 1% goat serum for 30 min. Consequently, the cells were incubated with anti-Vimentin antibody overnight at 4 °C, at a dilution of 1:100, followed by washing with PBST and further incubation with secondary anti-rabbit Alexa Fluor 488 (1:750 dilution). After subsequent washing and mounting, the images were captured at ×20 magnification under Floid Cell Imaging Station (Invitrogen).

[3] = test system: HCT-116, SW-620, and HT-29 cells; test: Western blotting of p-Vimentin/Vimentin after transient 5-FU treatment; type: cell-based; conditions: 5-FU 1 µM (sub-toxic), 24 h; range over HCT-116, SW-620, HT-29 cells; densitometry
Text: Vimentin belongs to the family of intermediate filament proteins that are known to function in maintaining the shape as well as the integrity of the normal mesenchymal cells[33],[34]. However, it has been established to regulate the cell shape and migration capability during EMT, a phenomenon critical to metastasis of cancer cells[35],[36]. To investigate any plausible contribution of Vimentin to 5-FU resistance in CRC, we treated a panel of three epithelial colorectal carcinoma cell lines (HCT-116, SW-620, and HT-29) with increasing concentrations of the said drug, transiently (24 h). Western blots were generated for the whole-cell lysates obtained from the above set of experiments. Since the phosphorylated Vimentin is an important signal transducer during the EMT process, we analyzed p-Vimentin (ser38) as well as total Vimentin levels in these lysates.
Fig. 1 Vimentin activation and the onset of EMT in CRC cells transiently exposed to 5-FU, as well as in 5-FU-resistant population. […] F Quantification of the number of invaded cells per field from the above invasion assay experiment. n = 3, error bars: mean ± SD; ***P < 0.001. […]
We adhered to the previously published protocol for western blotting. […] Bradford assay was performed to quantify the protein concentration. […]

SW-620/5-FU-R cells [4] = test: Acquired 5-FU resistance (MTT cytotoxicity assay); type: cell-based; conditions: cells selected with increasing 5-FU for at least 20 weeks
Description: (§2) Previously described procedure by Shukla et al. was followed with minor modifications. In brief, wild-type CRC cells (HCT-116, SW-620, and HT-29) were cultured with increasing concentrations of 5-FU for at least 20 weeks. The acquired drug resistance was tested periodically by determining the half maximal inhibitory concentration (IC50) of 5-FU through MTT cytotoxicity assays.
(§3) The experiments were performed using the wild-type and 5-FU-RCRC cells following our standardized protocols, as described previously[56],[57].

HT-29/5-FU-R cells = test: Acquired 5-FU resistance (MTT cytotoxicity assay); type: cell-based; conditions: cells selected with increasing 5-FU for at least 20 weeks
Description: as §2, §3

HCT-116/5-FU-R cells [5] = test: Acquired 5-FU resistance (MTT cytotoxicity assay); type: cell-based; conditions: cells selected with increasing 5-FU for at least 20 weeks
Description: as §2, §3

[6] = test system: orthotopic rat colorectal carcinoma; conditions: 25 mg/kg thrice a week for 3 weeks
Text: To examine the antitumor and anti-metastatic efficacy of 4DPG in vivo, we employed a carcinogen-induced orthotopic rat colorectal carcinoma model. […] The schematic representation briefly describes the steps involved in the generation of orthotopic colorectal tumors along with the treatment strategy and further analysis (details in “Materials and methods”). The animals were euthanized at the end of the experiment and evaluated for tumor and metastatic burden (Fig. 4A). […] To validate whether our in vitro observations on mechanistic inhibition of EMT and invasion by 4DPG hold true in vivo, we performed immunohistochemical analysis of the tumor tissues acquired from the saline and 4DPG-treated animal groups.
A Model depicting the procedure adopted for generating the carcinogen-induced orthotopic rat CRC model, treatment strategies of 4DPG, evaluation of tumor burden, and further biochemical analysis. B Representative images of large bowel showing the colorectal tumor growth in saline, 5-FU (25 mg/kg), and 4DPG (25 mg/kg) treated groups of animals. C, D Quantification of tumor volume and number of polyps per rat in above groups of animals. n = 6 rats per group, error bars: mean ± SD; *P < 0.05, **P < 0.01, ***P < 0.001. E Representative images of the lungs dissected from the above groups of animals showing metastatic tumor burden. Orange arrows indicating bumps of secondary tumors over each lobe of lungs. F, G Quantification of a number of macroscopic secondary tumors over the lung tissues and lung weight in the above groups of animals. n = 6 rats per group, error bars, mean ± SD; **P < 0.01, ***P < 0.001. […] Scale bar: 50 µm. I Western blots depicting expression of p-Chk2 (Thr68), Chk2, p53, p-Vimentin (Ser38), and Vimentin in tumor tissues obtained from saline- and 4DPG-treated groups of animals. β-Actin expression was taken as endogenous loading control. J Densitometry analysis of the above western blot bands portraying relative protein expression of the markers presented. n = 3, error bars: mean ± SD; **P < 0.01, ***P < 0.001.
Animal studies were performed following the guidelines approved by Institutional Animal Ethics Committee (IAEC No. 51/02/15) of CSIR-Indian Institute of Integrative Medicine, Jammu, India. The experiment was performed according to our standardized protocol described previously with necessary modifications. Five-weeks-old healthy male Wistar rats (body weight 150–200 g) were maintained in aseptic condition with free access to food and water. Animals were randomized into three groups, with six animals per group. All the rats received intrarectal instillation of 0.5 mL of freshly prepared 0.4% aqueous solution of N-methyl-N-nitrosourea (MNU) thrice a week for 3 weeks, for the orthotopic induction of colorectal tumors. The solution was injected using sterile syringe with attached 8-cm long rubber catheter tube inserted two-thirds into the colon lumen through anal orifice, as described previously. The animals were kept under continuous monitoring, and the body weight was measured once per week. Following 22 weeks after the initiation of MNU administration, treatment regimens were started by administering 5-FU (25 mg/kg), and 4DPG (25 mg/kg) thrice a week for 3 weeks. The control and treatment groups of animals were dosed separately by three independent investigators and the outcomes were assessed by a fourth investigator blind about the dosing process and treatment regimen.

SMILES	number of invaded cells (HCT-116/5-FU-R cells [1])	Vimentin level (immunocytochemistry) (SW-620/5-FU-R cells [2])	boost in p-Vimentin (ser38) [3]	increase in Vimentin expression level [3]	acquired resistance up to (5-FU concentration) (SW-620/5-FU-R cells [4]) [µM]	acquired resistance up to (5-FU concentration) (HT-29/5-FU-R cells) [µM]	acquired resistance up to (5-FU concentration) (HCT-116/5-FU-R cells [5])	lung metastases [6]	average number of polyps ([6]; control group 16)	mean tumor volume ([6]; saline control 820.6 mm^3) [mm^3]
CC(=NNC(=N)N)c1ccc(NC(=O)c2cc3cccc([N+](=O)[O-])c3[nH]2)cc1 [PV1019, 7-nitro-1H-indole-2-carboxylic acid {4-[1-(guanidinohydrazone)-ethyl]-phenyl}-amide, reference compound]	remarkable increase	increased Vimentin level								
O=c1[nH]cc(F)c(=O)[nH]1 [5-FU, 5-fluorouracil]			2–7.8 fold	2.1–8.5 fold	≤ 60	≤ 45	up to 50 µM	could not restrict the metastatic spread	8	231
